We go through six molecules from US11690813B2, “Aminothiol reduction of ischemia-reperfusion-induced cell death” (OBVIA PHARMACEUTICALS LTD, priority 2018, dated 2023).

The conditions of series [1]: in vivo.
Series [2] deals with irradiated skin. Format: in vivo, rat.
For series [3] the following is noted: humans; cited from earlier work.
For series [4] the following is noted: rat, in vivo.
Series [5] has as its system primary neonate cardiac myocytes. The class given is cell-based, mice.
The conditions of series [6]: mouse, in vivo.
Series [7] deals with pUC19 plasmid DNA. The experiment in a line: x-irradiation ROS-induced nicking of pUC19 plasmid DNA. Format: biochemical.
Series [8] relates to pUC19 plasmid DNA. The class given is biochemical.
On the set-up of series [9]: species or system mice. The conditions noted are these: mouse, in vivo.
Series [10] has as its system human blood lymphocytes. Format: cell-based.
The test system of series [11] is serum blood urea nitrogen (BUN). The settings on record: mouse, in vivo, ip.
In series [12] the test system is Caspase 3 and 7 activity in kidney homogenate supernates. The conditions noted are these: mouse, in vivo, ip.
Series [13] can be described thus: physchem. The settings on record: buffer, pH 7.2.
In series [14] the test system is cardiac muscle. The conditions noted are these: mouse, in vivo, ip.
For series [15] the following is noted: mouse, in vivo. This is another data set of the same source.
The conditions of series [16]: rats; cited from earlier work.
Setting [17] is: added 15 min before 90 Gy x-irradiation over 30 min.

The structures appear in SMILES notation. Several values for one entry are separate records, joined by “and”; a condition that tells them apart may be missing. Equal entries are not always repeated. Where two headings read alike, the source gives them in different places.

As to `NCCCNCCSP(=O)(O)O` [Amifostine, amifostine], the “retching and emesis responses” value in [1] is “significant bouts of both retching and emesis”. The “Ionizing Radiation-ROS-Induced Dermatitis (% Clear Skin)” value in series [2] (Topical 100 mM, day 13) was determined as 0 % Clear Skin. Moreover, in [3], the hypotension/fainting side effects entry is recorded as “hypotension/fainting side effects” and the nausea/emesis side effects result is on record as “severe nausea/emesis side effects”. The “blood pressure response to challenge dose of IP epinephrine after drug” value in series [4] was “no discernible effect upon blood pressure”. In [4] (ip), the “effect on blood pressure” value is “immediate and irreversible drop in blood pressure”; the “ocular toxicity associated with chronic hypotension” value is on record as “discernible ocular phenotype/toxicity”.
A word on the half-life: it is the time needed for the level to fall by half in the phase considered. A lower half-life goes with fast loss. For the molecule `CNCC(CS)CNC` [PrC-210], the “H2O2-induced cell death eliminated” value in series [5] is ~80%. For the same molecule, the “IP maximum tolerated dose (MTD)” value in series [6] worked out at 504 ug/gm body weight. Further, in series [7], the “suppression of ROS-induced damage to plasmid DNA” value (“suppression of ROS-induced damage” for short) is on record as “dose-dependent suppression” and the “suppression of pUC19 DNA damage” value stood at 90%. In addition, the “suppression of .OH-induced ROS DNA damage” value in [8] was “complete suppression”. Further, the “retching and emesis responses” value in series [1] (ferret) is “none of the 10 ferrets”. Moreover, in series [2] (rat, in vivo), the “Ionizing Radiation-ROS-Induced Dermatitis (% Clear Skin)” value came out at 100 % Clear Skin. The “Ionizing Radiation-ROS-Induced Dermatitis (% Clear Skin)” value in series [2] (rat, in vivo, ip) turned out to be 100 % Clear Skin. In series [9], the “suppression of radiation-induced death” value is “complete suppression” and the “survival against otherwise 100% lethal dose of radiation” value was 100%. For the same molecule, the “suppression of γ-H2AX foci formation” value in series [10] is listed as “highly significant”. Besides, in series [4], the “blood pressure response to challenge dose of IP epinephrine after drug” value is on record as “robust increase in blood pressure”. For the same molecule, the “effect on blood pressure” value in series [4] (ip) is listed as “no reduction in blood pressure”. The “reduction in serum blood urea nitrogen (BUN) level” value in series [11] is recorded as “like reduction”. Also, in series [12], the “reduction in level of kidney caspase” value turned out to be 84%, the “reduction in level of kidney caspase at 0.24 MTD” value is on record as “highly significant reductions” and the “reduction in level of kidney caspase over dose range” value is on record as “dose-dependent reduction”. This molecule also gave a half-life in series [13] of 3.5 h. Besides, the “reduction in percentage of total cardiac muscle stained as dead-tissue” value in series [14] was 36%. For the same molecule, the “half-life of the thiol” value (buffer, pH 7.2) is 3.5 h. Moreover, the “conversion to disulfide form” value (pH 6) is reported as “no discernible conversion”. In series [15], the “PrC-210 thiol blood concentration” value came out at 3 mM and the “plasma/blood concentrations of PrC-210 thiol associated with protection” value fell in the range of 1 to 3 mM.
`NCC(CN)CS` [PrC-211]: in series [6], the “IP maximum tolerated dose (MTD)” value came out at 500 ug/gm body weight. For the same molecule, the “Ionizing Radiation-ROS-Induced Dermatitis (% Clear Skin)” value is 55 % Clear Skin and 100 % Clear Skin in series [2] (rat, in vivo); 87 % Clear Skin in series [2] (rat, in vivo, ip). Also, the “reduction in level of kidney caspase at 0.24 MTD” value in series [12] is recorded as “highly significant reductions”.
In the case of `NCCCNCCS` [WR-1065, reference compound], the “suppression of ROS-induced damage” value in [7] (setting [17]) is “dose-dependent suppression”. Besides, in [16], the hypotension side effects result is on record as “hypotension side effects”.
Regarding `NCCS` [cysteamine, reference compound], the “suppression of ROS-induced damage” value in series [7] (setting [17]) is given as “dose-dependent suppression”.
On to `CN(C)C(=O)C(CCN1CCC(O)(c2ccc(Cl)cc2)CC1)(c1ccccc1)c1ccccc1` [loperamide], for which, in series [1], the “retching and emesis responses” value was “strong retch and emesis responses”.
